# Data from EP0014295B1, “Benzodioxan derivatives, process for their preparation and their therapeutical applications” (Bouchara, Emile Dr., priority 1979, dated 1980).
# How the values were obtained:
# Acute toxicity, oral = details: mouse, in vivo, souris, per os, read-out: Dose léthale 50 approchée mg/kg per os
# Description: La toxicité a été déterminée chez la souris par voie orale. Les résultats sont donnés dans le tableau III.
# système nerveux central = assay: Effects on the central nervous system, oral; format: in vivo; details: souris, voie orale, doses provoquant une activité antihypertensive chez le rat
# Description: Ces effets centraux sont peut-être directement liés à l'action hypotensive
# [1] = test system: pression artérielle de l'animal hypertendu non anesthésié; assay: Effect on arterial pressure of the non-anaesthetised hypertensive animal, oral (rat); format: in vivo
# Description: (§1) b) Effet sur la pression artérielle de l'animal hypertendu non anesthésié.
# (§2) L'étude a été conduite chez le rat et chez le chien. On a utilisé, d'une part, des animaux (rats) présentant une hypertension expérimentale induite par ligature de l'aorte abdominale entre les deux artères rénales et, d'autre part, des animaux (rats et chiens) porteurs d'hypertension spontanée.
# (§3) Le composé de l'exemple 2 a été administré par voie orale soit en prise unique pour connaître la cinétique d'action du produit, soit en traitement prolongé.
# rats = assay: Chronic toxicity, mixed with food for 45 days; format: in vivo; details: 75 mg/kg/jour, mélangé à la nourriture, 45 jours
# Description: Le composé de l'exemple 2, mélangé à la nourriture, a été administré 45 jours de suite à des rats.
# [2] = test system: pression artérielle de l'animal normotendu anesthésié; assay: Effect on arterial pressure of the anaesthetised normotensive animal, intravenous (rat); format: in vivo; details: voie intraveineuse
# Description: (§4) a) Effet sur la pression artérielle de l'animal normotendu anesthésié.
# (§5) L'étude a été conduite chez le rat, le lapin et le chien. Le composé de l'exemple 2 a été administré par voie intraveineuse. Les différents paramètres enregistrés ont été les pressions artérielles systoliques, diastoliques et moyennes, la fréquence cardiaque, la vitesse d'éjection systolique (dp/dt). La force de contraction cardiaque, les débits artériel et veineux ont été enregistrés chez le chien uniquement.
# [3] = test system: pression artérielle de l'animal normotendu anesthésié; assay: Effect on arterial pressure of the anaesthetised normotensive animal, intravenous (rabbit); format: in vivo; details: lapin normotendu anesthésié, voie intraveineuse, dès la dose de 0,250 mg/kg; proportionnelle aux doses en intensité et en durée
# Description: as §4, §5
# [4] = test system: pression artérielle de l'animal hypertendu non anesthésié; assay: Effect on arterial pressure of the non-anaesthetised hypertensive animal, oral (dog); format: in vivo, chien
# Description: as §1, §2, §3
# [5] = test system: pression artérielle de l'animal normotendu anesthésié; assay: Effect on arterial pressure of the anaesthetised normotensive animal, intravenous (dog); format: in vivo; details: chien normotendu anesthésié, voie intraveineuse
# Description: as §4, §5
# [6] = dès la dose de 0,250 mg/kg, proportionnelle aux doses en intensité et en durée
smiles,measurement,setting,value
"O=C(c1ccc(O)cc1)C1CCN(CC2COc3ccccc3O2)CC1 (centres unmarked) [Exemple 7, 1-[(2,3-Dihydro-4H-1,4-benzodioxin)-2-ylméthyl]-4-(4-hydroxy-benzoyl) pipéridine]",LD50,"Acute toxicity, oral",440 mg/kg
"O=C(c1ccc(F)cc1)C1CCN(CC2COc3ccccc3O2)CC1 (centres unmarked) [Exemple 2, Chlorhydratede la 1-[(2,3-dihydro-4H-1,4-benzodioxin)-2-ylméthyl]-4-(4-fluorobenzoyl) pipéridine]",agressivité,système nerveux central,diminution
same,sommeil expérimental,système nerveux central,potentialisation
same,sédation,système nerveux central,sédation générale
same,Diminution de la pression artérielle en mm de mercure Chez le rat,"[1]; 10 mg/kg P.O., 10mn",39±11 mm de mercure
same,Diminution de la pression artérielle en mm de mercure Chez le rat,"[1]; 10 mg/kg P.O., 30mn",45±10 mm de mercure
same,Diminution de la pression artérielle en mm de mercure Chez le rat,"[1]; 10 mg/kg P.O., 1h",33±9 mm de mercure
same,Diminution de la pression artérielle en mm de mercure Chez le rat,"[1]; 10 mg/kg P.O., 2h",20±6 mm de mercure
same,Diminution de la pression artérielle en mm de mercure Chez le rat,"[1]; 10 mg/kg P.O., 6h",6±3 mm de mercure
same,Diminution de la pression artérielle en mm de mercure Chez le rat,"[1]; 20 mg/kg P.O., 10mn",66±8 mm de mercure
same,Diminution de la pression artérielle en mm de mercure Chez le rat,"[1]; 20 mg/kg P.O., 30mn",63±6 mm de mercure
same,Diminution de la pression artérielle en mm de mercure Chez le rat,"[1]; 20 mg/kg P.O., 1h",49±7 mm de mercure
same,Diminution de la pression artérielle en mm de mercure Chez le rat,"[1]; 20 mg/kg P.O., 2h",37±7 mm de mercure
same,Diminution de la pression artérielle en mm de mercure Chez le rat,"[1]; 20 mg/kg P.O., 6h",29±6 mm de mercure
same,Diminution de la pression artérielle en mm de mercure Chez le rat,"[1]; 20 mg/kg P.O., 12h",17±7 mm de mercure
same,Diminution de la pression artérielle en mm de mercure Chez le rat,"[1]; 20 mg/kg P.O., 18h",8±4 mm de mercure
same,Diminution de la pression artérielle en mm de mercure Chez le rat,"[1]; 20 mg/kg P.O., 24h",3±3 mm de mercure
same,Diminution de la pression artérielle en mm de mercure Chez le rat,"[1]; 50 mg/kg P.O., 10mn",68±6 mm de mercure
same,Diminution de la pression artérielle en mm de mercure Chez le rat,"[1]; 50 mg/kg P.O., 30mn",68±5 mm de mercure
same,Diminution de la pression artérielle en mm de mercure Chez le rat,"[1]; 50 mg/kg P.O., 1h",52±6 mm de mercure
same,Diminution de la pression artérielle en mm de mercure Chez le rat,"[1]; 50 mg/kg P.O., 2h",38±7 mm de mercure
same,Diminution de la pression artérielle en mm de mercure Chez le rat,"[1]; 50 mg/kg P.O., 6h",32±8 mm de mercure
same,Diminution de la pression artérielle en mm de mercure Chez le rat,"[1]; 50 mg/kg P.O., 12h",16±7 mm de mercure
same,Diminution de la pression artérielle en mm de mercure Chez le rat,"[1]; 50 mg/kg P.O., 18h",8±5 mm de mercure
same,Diminution de la pression artérielle en mm de mercure Chez le rat,"[1]; 50 mg/kg P.O., 24h",5±5 mm de mercure
same,action antihypertensive,"[1]; rat hypertendu, voie orale, prise unique ou traitement prolongé, augmentant avec les doses jusqu'à un plafond","action antihypertensive nette, prolongée"
same,LD50,"Acute toxicity, oral",880 mg/kg
same,"anomalie clinique, hématologique, anatomique",rats,"aucune anomalie ni clinique, ni hématologique, ni anatomique"
same,taux des triglycérides,rats,chute nette et isolée
same,fréquence cardiaque,[2],bradycardie
same,pression artérielle,[2]; [6],chute tensionnelle systo- diastolique très rapide
same,pression artérielle,[3],chute tensionnelle systo- diastolique très rapide
same,Diminution de la pression artérielle en mm de mercure Chez le chien,"[4]; 10 mg/kg P.O., 20mn",10±4 mm de mercure
same,Diminution de la pression artérielle en mm de mercure Chez le chien,"[4]; 10 mg/kg P.O., 40mn",10±4 mm de mercure
same,Diminution de la pression artérielle en mm de mercure Chez le chien,"[4]; 10 mg/kg P.O., 1h",18±3 mm de mercure
same,Diminution de la pression artérielle en mm de mercure Chez le chien,"[4]; 10 mg/kg P.O., 2h",11±1 mm de mercure
same,Diminution de la pression artérielle en mm de mercure Chez le chien,"[4]; 10 mg/kg P.O., 5h",4±3 mm de mercure
same,Diminution de la pression artérielle en mm de mercure Chez le chien,"[4]; 10 mg/kg P.O., 7h",1±2 mm de mercure
same,Diminution de la pression artérielle en mm de mercure Chez le chien,"[4]; 10 mg/kg P.O., 24h",0±1 mm de mercure
same,Diminution de la pression artérielle en mm de mercure Chez le chien,"[4]; 20 mg/kg P.O., 20mn",12±4 mm de mercure
same,Diminution de la pression artérielle en mm de mercure Chez le chien,"[4]; 20 mg/kg P.O., 40mn",26±3 mm de mercure
same,Diminution de la pression artérielle en mm de mercure Chez le chien,"[4]; 20 mg/kg P.O., 1h",38±2 mm de mercure
same,Diminution de la pression artérielle en mm de mercure Chez le chien,"[4]; 20 mg/kg P.O., 2h",37±3 mm de mercure
same,Diminution de la pression artérielle en mm de mercure Chez le chien,"[4]; 20 mg/kg P.O., 5h",18±7 mm de mercure
same,Diminution de la pression artérielle en mm de mercure Chez le chien,"[4]; 20 mg/kg P.O., 7h",8±1 mm de mercure
same,Diminution de la pression artérielle en mm de mercure Chez le chien,"[4]; 20 mg/kg P.O., 24h",2±3 mm de mercure
same,Diminution de la pression artérielle en mm de mercure Chez le chien,"[4]; 50 mg/kg P.O., 20mn",21±9 mm de mercure
same,Diminution de la pression artérielle en mm de mercure Chez le chien,"[4]; 50 mg/kg P.O., 40mn",31±6 mm de mercure
same,Diminution de la pression artérielle en mm de mercure Chez le chien,"[4]; 50 mg/kg P.O., 1h",40±8 mm de mercure
same,Diminution de la pression artérielle en mm de mercure Chez le chien,"[4]; 50 mg/kg P.O., 2h",46±3 mm de mercure
same,Diminution de la pression artérielle en mm de mercure Chez le chien,"[4]; 50 mg/kg P.O., 5h",28±8 mm de mercure
same,Diminution de la pression artérielle en mm de mercure Chez le chien,"[4]; 50 mg/kg P.O., 7h",22±6 mm de mercure
same,Diminution de la pression artérielle en mm de mercure Chez le chien,"[4]; 50 mg/kg P.O., 24h",1±2 mm de mercure
same,action antihypertensive,"[4]; chien hypertendu, voie orale, prise unique ou traitement prolongé, augmentant avec les doses jusqu'à un plafond","action antihypertensive nette, prolongée"
same,effet antihypertenseur après arrêt du traitement,"[4]; chien, après arrêt du traitement, retour progressif à la normale",persistance de l'effat antihypertenseur
same,pression artérielle,[5]; [6],chute tensionnelle systo- diastolique très rapide
same,dp/dt (vitesse d'éjection systolique),[5]; parallèlement à l'hypotension,augmentation
same,débits artériel et veineux,[5]; parallèlement à l'hypotension,augmentation
same,force de contraction cardiaque,[5]; parallèlement à l'hypotension,augmentation
"CCc1ccc(C(=O)C2CCN(CC3COc4ccccc4O3)CC2)cc1 (centres unmarked) [Exemple 11, Chlorhydratede la 1-[(2,3-dihydro-4H-1,4-benzodioxin)-2-ylméthyl]-4-(4-éthylbenzoyl) pipéridine]",LD50,"Acute toxicity, oral",1200 mg/kg
"O=C(c1ccc(Cl)cc1)C1CCN(CC2COc3ccccc3O2)CC1 (centres unmarked) [Exemple 6, Chlorhydratede la 1-[(2,3-dihydro-4H-1 ,4-benzodioxine)-2-ylméthyl]-4-(4-chlorobenzoyl) pipéridine]",LD50,"Acute toxicity, oral",880 mg/kg
"COc1ccc(C(=O)C2CCN(CC3COc4ccccc4O3)CC2)cc1 (centres unmarked) [Exemple 4, Fumaratede la 1-[(2,3-dihydro-4H-1,4-benzodioxin)-2-ylméthyl]-4-(4-méthoxybenzoyl) pipéridine]",LD50,"Acute toxicity, oral",364 mg/kg
Cc1ccc(C(=O)C2CCN(CC3COc4ccccc4O3)CC2)cc1 (centres unmarked) [Exemple 10],LD50,"Acute toxicity, oral",1460 mg/kg
"O=C(c1ccccc1)C1CCN(CC2COc3ccccc3O2)CC1 (centres unmarked) [Exemple 9, Ghlorhydratede la 1-[(2,3-dihydro-4H-1,4-benzodioxin)-2-ylméthyl]-4-benzoyl pipéridine]",LD50,"Acute toxicity, oral",2400 mg/kg
"O=C(Oc1ccc(C(=O)C2CCN(CC3COc4ccccc4O3)CC2)cc1)c1cccnc1 (centres unmarked) [Exemple 8, Nicotinatede la 1-[(2,3-dihydro-4H-1,4-benzodioxin)-2-ylméthyl]-4-(4-hydroxybenzoyl) pipéridine]",LD50,"Acute toxicity, oral",> 3200 mg/kg
